How the values were obtained:
ISC-enriched organoids [1] = test: Primary screen, 384-well 2.5-D organoid differentiation (ENR+CD, 6 days, Target Selective Inhibitor Library, vs whole-plate median): ATP (CellTiter-Glo 3D, CTG); settings: for Dose.FC.CTG (log 2 fold change, ATP): vs plate median
ISC-enriched organoids [2] = test: Primary screen, 384-well 2.5-D organoid differentiation (ENR+CD, 6 days): carbachol-induced lysozyme secretion (LYZ.S); assay type: cell-based, murine; settings: vs plate median
Excerpt: (§1) High-throughput screening.

ISC-enriched organoids [3] = test: Primary screen, 384-well 2.5-D organoid differentiation (ENR+CD, 6 days): basal lysozyme secretion (LYZ.NS); assay type: cell-based, murine; settings: for Dose.FC.LYZ.NS (log 2 fold change, basal lysozyme secretion): vs plate median
Excerpt: as §1

| SMILES | Z.CTG (standard z score) (ISC-enriched organoids [1]; dose 0.08 uM) | Dose.FC.CTG (log 2 fold change, ATP) (ISC-enriched organoids [1]; dose 0.08 uM) | Z.CTG (standard z score) (ISC-enriched organoids [1]; dose 0.40 uM) | Dose.FC.CTG (log 2 fold change, ATP) (ISC-enriched organoids [1]; dose 0.40 uM) | Z.CTG (standard z score) (ISC-enriched organoids [1]; dose 2.00 uM) | Dose.FC.CTG (log 2 fold change, ATP) (ISC-enriched organoids [1]; dose 2.00 uM) | Z.CTG (standard z score) (ISC-enriched organoids [1]; dose 10.00 uM) | Dose.FC.CTG (log 2 fold change, ATP) (ISC-enriched organoids [1]; dose 10.00 uM) | Dose.FC.LYZ.S (log 2 fold change, carbachol-induced lysozyme secretion) (ISC-enriched organoids [2]; dose 0.08 uM) | Dose.FC.LYZ.S (log 2 fold change, carbachol-induced lysozyme secretion) (ISC-enriched organoids [2]; dose 0.40 uM) | Dose.FC.LYZ.S (log 2 fold change, carbachol-induced lysozyme secretion) (ISC-enriched organoids [2]; dose 2.00 uM) | Dose.FC.LYZ.S (log 2 fold change, carbachol-induced lysozyme secretion) (ISC-enriched organoids [2]; dose 10.00 uM) | Z.LYZ.NS (standard z score) (ISC-enriched organoids [3]; dose 0.08 uM) | Dose.FC.LYZ.NS (log 2 fold change, basal lysozyme secretion) (ISC-enriched organoids [3]; dose 0.08 uM) | Z.LYZ.NS (standard z score) (ISC-enriched organoids [3]; dose 0.40 uM) | Dose.FC.LYZ.NS (log 2 fold change, basal lysozyme secretion) (ISC-enriched organoids [3]; dose 0.40 uM) | Z.LYZ.NS (standard z score) (ISC-enriched organoids [3]; dose 2.00 uM) | Dose.FC.LYZ.NS (log 2 fold change, basal lysozyme secretion) (ISC-enriched organoids [3]; dose 2.00 uM) | Z.LYZ.NS (standard z score) (ISC-enriched organoids [3]; dose 10.00 uM) | Dose.FC.LYZ.NS (log 2 fold change, basal lysozyme secretion) (ISC-enriched organoids [3]; dose 10.00 uM) |
| --- | --- | --- | --- | --- | --- | --- | --- | --- | --- | --- | --- | --- | --- | --- | --- | --- | --- | --- | --- | --- |
| CC(C)C[C@@H](C(=O)N[C@H](C(=O)OC1CCCC1)c1ccccc1)[C@H](O)C(=O)NO [Tosedostat (CHR2797)] | −0.232 | −0.097 | 0.123 | 0.051 | −0.480 | −0.201 | −1.117 | −0.468 | −0.027 | −0.134 | −0.128 | −0.276 | −0.022 | −0.002 | −0.925 | −0.106 | −0.432 | −0.050 | −1.499 | −0.172 |
| CC(/C=C/C(=O)NO)=C\[C@@H](C)C(=O)c1ccc(N(C)C)cc1 [Trichostatin A (TSA)] | 0.457 | 0.191 | −1.913 | −0.801 | −2.159 | −0.904 | −1.974 | −0.826 | −0.124 | −0.254 | −0.210 | −0.202 | −0.554 | −0.064 | −1.697 | −0.195 | −1.334 | −0.153 | −1.298 | −0.149 |
| O=C(O[C@H]1C[C@H]2CC[C@@H](C1)[N+]21CCCC1)C(O)(c1ccccc1)c1ccccc1 [Trospium chloride] | 0.199 | 0.083 | −0.073 | −0.031 | 0.477 | 0.200 | 0.354 | 0.148 | 0.119 | 0.117 | −0.008 | 0.084 | 1.470 | 0.169 | 1.895 | 0.218 | −0.017 | −0.002 | 0.885 | 0.102 |
| CC(C)(C)c1cc(/C=C(\C#N)C(N)=S)cc(C(C)(C)C)c1O [Tyrphostin AG 879] | −0.828 | −0.347 | −0.569 | −0.238 | −0.554 | −0.232 | −0.879 | −0.368 | −0.083 | −0.084 | −0.051 | −0.123 | 0.088 | 0.010 | −0.680 | −0.078 | −0.698 | −0.080 | −0.960 | −0.110 |
| CCO.N#CC(=C(/N)Sc1ccccc1N)/C(C#N)=C(\N)Sc1ccccc1N [U0126-EtOH] | −0.835 | −0.350 | −1.227 | −0.514 | −1.138 | −0.476 | −1.887 | −0.790 | 0.114 | 0.075 | −0.071 | −0.165 | 0.859 | 0.099 | 0.163 | 0.019 | −0.389 | −0.045 | −1.021 | −0.117 |
| O=C(c1cncc(Br)c1)N1CCC(N2CCCC2)CC1 [UNC669] | −0.226 | −0.095 | 0.228 | 0.096 | −0.561 | −0.235 | 0.174 | 0.073 | 0.047 | −0.029 | 0.025 | 0.002 | 0.578 | 0.066 | −0.048 | −0.006 | 0.606 | 0.070 | 0.249 | 0.029 |
| CCCCNc1ncc(-c2ccc(CN3CCOCC3)cn2)c(NC2CCC(O)CC2)n1 (centres unmarked) [UNC2250] | 0.633 | 0.265 | 0.667 | 0.279 | 0.250 | 0.105 | −0.153 | −0.064 | 0.142 | 0.113 | 0.134 | −0.205 | 1.005 | 0.115 | 0.587 | 0.067 | 0.744 | 0.085 | −1.336 | −0.153 |

— patent US20230398130A1, “METHODS AND COMPOSITIONS FOR DIFFERENTIATING STEM CELLS” (Massachusetts Institute of Technology, priority 2020, published 2023)
